pIC50: −log10 of the molar value.
Assays:
SW48 cells = assay: Inhibition of SW48 cell proliferation (CellTiter-Glo); type: cell-based; settings: Homo sapiens; SW48 cells (MSI-H), 120 hours
In short: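 SW48 (MSI-H) cells in L-15 with 10% FBS were seeded at 500 per well, cultured overnight at 37 °C, then exposed to compound at final concentrations of 10000 nM to 1.52 nM for 120 h. Viability was read by CellTiter-Glo luminescence, with inhibition relative to 0.1% DMSO. IC50 from nonlinear regression of log concentration versus inhibition.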

RL95-2 cells = assay: Inhibition of RL95-2 cell proliferation (CellTiter-Glo); type: cell-based; settings: Homo sapiens; RL95-2 cells (MSI-H), 120 hours
In short: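 Proliferation IC50 derived by nonlinear regression of % inhibition against log concentration, with 0.1% DMSO wells as reference. CellTiter-Glo luminescence was read after 120 h of compound exposure (10000 nM down to 1.52 nM final) at 37 °C. MSI-H RL95-2 cells seeded at 500/well in DMEM/F12 with 10% FBS the day before.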

recombinant human WRN = target: T1, recombinant human WRN (Homo sapiens, UniProt Q14191); assay: Inhibition of WRN enzyme activity (ATPase), ADP-Glo Kinase Assay; type: biochemical; settings: WRN protein 5 nM, Flap 0.1 nM, ATP 30 µM; read-out: IC50
T1 construct: purchased BPS 101264
T1 sequence (Q14191 whole entry): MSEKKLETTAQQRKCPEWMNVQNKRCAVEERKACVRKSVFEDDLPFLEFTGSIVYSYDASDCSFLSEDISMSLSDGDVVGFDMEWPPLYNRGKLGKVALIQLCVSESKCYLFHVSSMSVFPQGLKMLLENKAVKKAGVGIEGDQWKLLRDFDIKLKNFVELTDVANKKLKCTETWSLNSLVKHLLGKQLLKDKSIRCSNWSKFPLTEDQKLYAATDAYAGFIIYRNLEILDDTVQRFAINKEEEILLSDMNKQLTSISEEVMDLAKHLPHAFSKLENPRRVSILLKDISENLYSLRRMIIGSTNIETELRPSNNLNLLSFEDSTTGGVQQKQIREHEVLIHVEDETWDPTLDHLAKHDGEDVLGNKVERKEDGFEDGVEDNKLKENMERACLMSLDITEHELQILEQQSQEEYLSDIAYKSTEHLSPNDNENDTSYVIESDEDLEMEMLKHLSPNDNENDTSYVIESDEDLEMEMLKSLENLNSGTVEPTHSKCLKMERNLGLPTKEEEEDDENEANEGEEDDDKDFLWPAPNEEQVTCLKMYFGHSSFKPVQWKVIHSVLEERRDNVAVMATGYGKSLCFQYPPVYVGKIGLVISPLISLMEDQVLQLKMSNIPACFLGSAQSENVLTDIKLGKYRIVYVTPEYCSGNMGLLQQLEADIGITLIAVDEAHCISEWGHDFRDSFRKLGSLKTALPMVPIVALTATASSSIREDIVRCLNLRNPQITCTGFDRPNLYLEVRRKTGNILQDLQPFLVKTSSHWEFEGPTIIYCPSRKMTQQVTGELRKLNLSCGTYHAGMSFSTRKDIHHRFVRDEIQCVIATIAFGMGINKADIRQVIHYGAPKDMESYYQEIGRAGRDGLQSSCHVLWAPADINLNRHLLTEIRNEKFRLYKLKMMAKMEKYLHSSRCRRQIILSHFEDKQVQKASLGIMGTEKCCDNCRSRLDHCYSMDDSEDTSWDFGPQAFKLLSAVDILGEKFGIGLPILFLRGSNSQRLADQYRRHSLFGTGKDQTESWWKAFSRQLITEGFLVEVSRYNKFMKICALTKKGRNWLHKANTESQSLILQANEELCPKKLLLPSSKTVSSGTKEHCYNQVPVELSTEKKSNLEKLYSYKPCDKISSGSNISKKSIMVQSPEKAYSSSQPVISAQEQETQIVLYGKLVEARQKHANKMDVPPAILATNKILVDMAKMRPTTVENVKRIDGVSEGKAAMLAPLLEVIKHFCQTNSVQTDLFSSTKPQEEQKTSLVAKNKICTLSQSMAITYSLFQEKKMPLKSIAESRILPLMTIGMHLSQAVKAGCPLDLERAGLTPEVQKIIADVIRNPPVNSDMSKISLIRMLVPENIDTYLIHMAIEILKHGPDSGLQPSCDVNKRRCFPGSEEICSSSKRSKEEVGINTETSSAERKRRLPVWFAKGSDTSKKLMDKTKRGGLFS
In short: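 ATPase activity was measured by ADP-Glo luminescence after a 10-min room-temperature reaction with 30 µM ATP and 0.1 nM Flap26 oligonucleotide substrate. The 5 nM WRN had first been exposed to compound (0.004–1000 nM) for 15 min in pH 7.5 Tris buffer with 2 mM MgCl2. IC50 values came from log-concentration regression against the DMSO control.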

| Structure (SMILES) | pIC50 (SW48 cells) | pIC50 (recombinant human WRN) | pIC50 (RL95-2 cells) |
| --- | --- | --- | --- |
| CCc1c(N2CCN(C(=O)c3nc(C)ncc3O)CC2)c(=O)n2nc(-c3ccc4c(c3)CCO4)nc2n1CC(=O)Nc1ccc(C(F)(F)F)cc1Cl [Example 150, N-(2-chloro-4-(trifluoromethyl)phenyl)-2-(2-(2,3-dihydrobenzofuran-5-yl)-5-ethyl-6-(4-(5-hydroxy-2-methylpyrimidine-4-carbonyl)piperazin-1-yl)-7-oxo-[1,2,4]triazolo[1,5-a]pyrimidin-4(7H)-yl)acetamide] | 7.00 to 9.00 | 7.00 to 9.00 | 7.00 to 9.00 |
| CCc1c(N2CCN(C(=O)c3ncnc(C)c3O)CC2)c(=O)n2nc(-c3cc4cnccc4s3)nc2n1CC(=O)Nc1ccc(C(F)(F)F)cc1Cl [Example 153, N-(2-chloro-4-(trifluoromethyl)phenyl)-2-(5-ethyl-6-(4-(5-hydroxy-6-methylpyrimidine-4-carbonyl)piperazin-1-yl)-7-oxo-2-(thieno[3,2-c]pyridin-2-yl)-[1,2,4]triazolo[1,5-a]pyrimidin-4(7H)-yl)a cetamide] | 7.00 to 9.00 | 7.00 to 9.00 | 7.00 to 9.00 |
| CCc1c(N2CCN(C(=O)c3ncnc(C)c3O)CC2)c(=O)n2nc(-c3cccc4c3OCC4)nc2n1CC(=O)Nc1ccc(C(F)(F)F)cc1Cl [Example 154, N-(2-chloro-4-(trifluoromethyl)phenyl)-2-(2-(2,3-dihydrobenzofuran-7-yl)-5-ethyl-6-(4-(5-hydroxy-6-methylpyrimidine-4-carbonyl)piperazin-1-yl)-7-oxo-[1,2,4]triazolo[1,5-a]pyrimidin-4(7H)-yl)acetamide] | 7.00 to 9.00 | 7.00 to 9.00 | 7.00 to 9.00 |
| CCc1c(N2CCN(C(=O)c3ncnc(C)c3O)CC2)c(=O)n2nc(-c3ccc4cn[nH]c4c3)nc2n1CC(=O)Nc1ccc(C(F)(F)F)cc1Cl [Example 156, N-(2-chloro-4-(trifluoromethyl)phenyl)-2-(5-ethyl-6-(4-(5-hydroxy-6-methylpyrimidine-4-carbonyl)piperazin-1-yl)-2-(1H-indazol-6-yl)-7-oxo-[1,2,4]triazolo[1,5-a]pyrimidin-4(7H)-yl)acetamide] | 7.00 to 9.00 | 7.00 to 9.00 | 7.00 to 9.00 |
| CCc1c(N2CCN(C(=O)c3ncnc(C)c3O)CC2)c(=O)n2nc(-c3ccc4c(c3)NCCO4)nc2n1CC(=O)Nc1ccc(C(F)(F)F)cc1Cl [Example 157, N-(2-chloro-4-(trifluoromethyl)phenyl)-2-(2-(3,4-dihydro-2H-benzo[b][1,4]oxazin-6-yl)-5-ethyl-6-(4-(5-hydroxy-6-methylpyrimidine-4-carbonyl)piperazin-1-yl)-7-oxo-[1,2,4]triazolo[1,5-a]pyrimidin-4(7H)-yl)acetamide] | 7.00 to 9.00 | 7.00 to 9.00 | 7.00 to 9.00 |
| CCc1c(N2CCN(C(=O)c3ncnc(C)c3O)CC2)c(=O)n2nc(C3=CCCCOC3)nc2n1CC(=O)Nc1ccc(S(F)(F)(F)(F)F)cc1C [Example 158, 2-(5-ethyl-6-(4-(5-hydroxy-6-methylpyrimidine-4-carbonyl)piperazin-1-yl)-7-oxo-2-(2,5,6,7-tetra hydrooxepin-3-yl)-[1,2,4]triazolo[1,5-a]pyrimidin-4(7H)-yl)-N-(2-methyl-4-(pentafluoro-λ^6-sulfaneyl)phenyl)acetamide] | 7.00 to 9.00 | 7.00 to 9.00 | 7.00 to 9.00 |
| CCc1c(N2CCN(C(=O)c3ncccc3O)CC2)c(=O)n2nc(C3=CC4COCC4C3)nc2n1CC(=O)Nc1ccc(C(F)(F)F)cc1Cl (stereo not drawn) [Example 159, N-(2-chloro-4-(trifluoromethyl)phenyl)-2-(5-ethyl-6-(4-(3-hydroxypicolinoyl)piperazin-1-yl)-7-oxo-2-(3,3a,4,6a-tetrahydro-1H-cyclopenta[c]furan-5-yl)-[1,2,4]triazolo[1,5-a]pyrimidin-4(7H)-yl) acetamide] | 7.00 to 9.00 | 7.00 to 9.00 | 7.00 to 9.00 |
| CCc1c(N2CCN(C(=O)c3ncnc(C)c3O)CC2)c(=O)n2nc(C3=CC4COCC4C3)nc2n1CC(=O)Nc1ccc(C(F)(F)F)cc1Cl (stereo not drawn) [Example 161, N-(2-chloro-4-(trifluoromethyl)phenyl)-2-(5-ethyl-6-(4-(5-hydroxy-6-methylpyrimidine-4-carbonyl)piperazin-1-yl)-7-oxo-2-(3,3a,4,6a-tetrahydro-1H-cyclopenta[c]furan-5-yl)-[1,2,4]triazolo[1,5-a]pyrimidin-4(7H)-yl)acetamide] | 7.00 to 9.00 | 7.00 to 9.00 | 7.00 to 9.00 |
| CCc1c(N2CCN(C(=O)c3ncnc(C)c3O)CC2)c(=O)n2nc(-c3cnc4c(c3)CCO4)nc2n1CC(=O)Nc1ccc(C(F)(F)F)cc1Cl [Example 162, N-(2-chloro-4-(trifluoromethyl)phenyl)-2-(2-(2,3-dihydrofuro[2,3-b]pyridin-5-yl)-5-ethyl-6-(4-(5-hydroxy-6-methylpyrimidine-4-carbonyl)piperazin-1-yl)-7-oxo-[1,2,4]triazolo[1,5-a]pyrimidin-4 (7H)-yl)acetamide] | 7.00 to 9.00 | 7.00 to 9.00 | 7.00 to 9.00 |

The next lines start with results.

| pIC50 (SW48 cells) | pIC50 (recombinant human WRN) | Structure (SMILES) | pIC50 (RL95-2 cells) |
| --- | --- | --- | --- |
| 7.00 to 9.00 | 7.00 to 9.00 | CCc1c(N2CCN(C(=O)c3ncnc(C)c3O)CC2)c(=O)n2nc(-c3cc4ccncc4s3)nc2n1CC(=O)Nc1ccc(C(F)(F)F)cc1Cl [Example 132, N-(2-chloro-4-(trifluoromethyl)phenyl)-2-(5-ethyl-6-(4-(5-hydroxy-6-methylpyrimidine-4-carbonyl)piperazin-1-yl)-7-oxo-2-(thieno[2,3-c]pyridin-2-yl)-[1,2,4]triazolo[1,5-a]pyrimidin-4(7H)-yl)a cetamide] | 7.00 to 9.00 |
| 7.00 to 9.00 | 7.00 to 9.00 | CCc1c(N2CCN(C(=O)c3ncnc(C)c3O)CC2)c(=O)n2nc(-c3nc4ccccc4s3)nc2n1CC(=O)Nc1ccc(C(F)(F)F)cc1Cl [Example 133, 2-(2-(benzo[d]thiazol-2-yl)-5-ethyl-6-(4-(5-hydroxy-6-methylpyrimidine-4-carbonyl)piperazin-1-yl)-7-oxo-[1,2,4]triazolo[1,5-a]pyrimidin-4(7H)-yl)-N-(2-chloro-4-(trifluoromethyl)phenyl)acetamide] | 7.00 to 9.00 |
| 7.00 to 9.00 | 7.00 to 9.00 | CCc1c(N2CCN(C(=O)c3ncnc(C)c3O)CC2)c(=O)n2nc(-c3cc4c(s3)CCNC4)nc2n1CC(=O)Nc1ccc(C(F)(F)F)cc1Cl [Example 134, N-(2-chloro-4-(trifluoromethyl)phenyl)-2-(5-ethyl-6-(4-(5-hydroxy-6-methylpyrimidine-4-carbonyl)piperazin-1-yl)-7-oxo-2-(4,5,6,7-tetrahydrothieno[3,2-c]pyridin-2-yl)-[1,2,4]triazolo[1,5-a]pyrimidin-4(7H)-yl)acetamide] | 7.00 to 9.00 |
| 7.00 to 9.00 | 7.00 to 9.00 | CCc1c(N2CCN(C(=O)c3ncnc(C)c3O)CC2)c(=O)n2nc(-c3ccc4nc(N)oc4c3)nc2n1CC(=O)Nc1ccc(C(F)(F)F)cc1Cl [Example 140, 2-(2-(2-aminobenzo[d]oxazol-6-yl)-5-ethyl-6-(4-(5-hydroxy-6-methylpyrimidine-4-carbonyl)piperazin-1-yl)-7-oxo-[1,2,4]triazolo[1,5-a]pyrimidin-4(7H)-yl)-N-(2-chloro-4-(trifluoromethyl)phenyl)acetamide] | 7.00 to 9.00 |
| 7.00 to 9.00 | 7.00 to 9.00 | CCc1c(N2CCN(C(=O)c3ncnc(C)c3O)CC2)c(=O)n2nc(-c3ccc4c(c3)CNCCO4)nc2n1CC(=O)Nc1ccc(C(F)(F)F)cc1Cl [Example 142, N-(2-chloro-4-(trifluoromethyl)phenyl)-2-(5-ethyl-6-(4-(5-hydroxy-6-methylpyrimidine-4-carbonyl)piperazin-1-yl)-7-oxo-2-(2,3,4,5-tetrahydrobenzo[f][1,4]oxazepin-7-yl)-[1,2,4]triazolo[1,5-a]pyrimidin-4(7H)-yl)acetamide] | 7.00 to 9.00 |
| 7.00 to 9.00 | 7.00 to 9.00 | [2H]C([2H])([2H])Sc1ccc(NC(=O)Cn2c(CC)c(N3CCN(C(=O)c4ncnc(C)c4O)CC3)c(=O)n3nc(-c4ccc5c(c4)CCO5)nc23)c(Cl)c1 [Example 147, N-(2-chloro-4-((methyl-d3)thio)phenyl)-2-(2-(2,3-dihydrobenzofuran-5-yl)-5-ethyl-6-(4-(5-hydroxy-6-methylpyrimidine-4-carbonyl)piperazin-1-yl)-7-oxo-[1,2,4]triazolo[1,5-a]pyrimidin-4(7H)-yl)acetamide] | 7.00 to 9.00 |
| 7.00 to 9.00 | 7.00 to 9.00 | CCc1c(C2=CCN(C(=O)c3ncnc(C)c3O)CC2)c(=O)n2nc(-c3ccc4c(c3)CCO4)nc2n1CC(=O)Nc1ccc(C(F)(F)F)cc1Cl [Example 149, N-(2-chloro-4-(trifluoromethyl)phenyl)-2-(2-(2,3-dihydrobenzofuran-5-yl)-5-ethyl-6-(1-(5-hydroxy-6-methylpyrimidine-4-carbonyl)-1,2,3,6-tetrahydropyridin-4-yl)-7-oxo-[1,2,4]triazolo[1,5-a]pyrimidin-4(7H)-yl)acetamide] | 7.00 to 9.00 |
